# “And” between values parts separate entries of the source, which are not always exact repeats. Equal entries are not always repeated. Structures can show the parent of a compound that is named as a salt.
row,flash point,Compound
1,32.00 °C,CCCCCC=O [hexanal]
2,35.00 °C,CCCCCCCl [1-chlorohexane]
3,-3.00 °C,CCCOC=O [propyl formate]
4,35.00 °C,CCCCCCC=O [heptanal]
5,21.00 °C,"CCC(Cl)Cl [1,1-dichloropropane]"
6,6.00 °C,CC#N [acetonitrile]
7,-29.00 °C,CCCC(C)C [2-methylpentane]

row,Compound,flash point
1,CCCCCCCC(=O)Cl [octanoyl chloride],81.00 °C
2,CCCCCCCCCl [1-chlorooctane],70.00 °C
3,CCCCCl [1-chlorobutane],-7.00 °C

# Remark: another data set of the same source
row,flash point,Compound
1,-2 °C,C=C1CCCCC1 [methylenecyclohexane]
2,23 °C,COCCCN [3-methoxypropylamine]
3,97 °C,C=CCCCCCCCCCCCC [1-tetradecene]
4,-30 °C,C1=CCCC1 [cyclopentene]
5,31 °C,COCC(C)O (stereo unspecified) [1-methoxy-2-propanol]

row,Compound,flash point
1,"CN(C)C1CCCCC1 [N,N-dimethylcyclohexylamine]",41 °C
2,"ClCCCCCCl [1,5-dichloropentane]",63 °C
3,"ClCCCCCl [1,4-dichlorobutane]",43 °C
4,"ClCCCCl [1,3-dichloropropane]",21 °C

# Remark: another data set of the same source
row,Compound,flash point
1,"CC(=O)CC(C)=O [2,4-Pentanedione]",41.00 °C
2,CCCCCCCC/C=C\CCCCCCCC(=O)O [Oleic acid],189.00 °C
3,"Clc1ccc(Cl)c(Cl)c1 [1,2,4-Trichlorobenzene]",99.00 °C
4,CC(C)OC(=O)c1ccccc1 [iso-Propyl benzoate],99.00 °C
5,O=C1OC(=O)c2ccccc21 [Phthalic anhydride],151.00 °C
6,O=Cc1ccccc1O [Salicylaldehyde],78.00 °C
7,c1ccc(Cc2ccccc2)cc1 [Diphenylmethane],130.00 °C
8,O=CO [Formic acid],69.00 °C
9,"CC(O)CCO (stereo unspecified) [1,3-Butylene glycol]",121.00 °C
10,"OCCCCCO [1,5-Pentanediol]",135.00 °C
11,c1ccccc1 [Benzene],-11.00 °C
12,CCC(C)OC(C)=O (stereo unspecified) [sec-Butyl acetate],31.00 °C
13,c1ccc2cc3ccccc3cc2c1 [Anthracene],121.00 °C
14,CC(C)c1ccccc1C(C)C [Diisopropyl benzene],76.00 °C
15,c1ccc(C2CCCCC2)cc1 [Cyclohexylbenzene],99.00 °C
16,Oc1ccc2ccccc2c1 [2-Naphthol],153.00 °C
17,CN [Monomethylamine],-10.00 °C
18,CCC(C)C [iso-Pentane],-51.00 °C
19,c1ccc(Nc2ccccc2)cc1 [Diphenylamine],153.00 °C
20,C=C(Cl)Cl [Vinylidene chloride],-15.00 °C
21,"NCCCN [1,3-Propanediamine]",24.00 °C
22,"Nc1cc(Cl)ccc1Cl [2,5-Dichloroaniline]",166.00 °C

row,Compound,flash point
1,CCCO [n-Propyl alcohol],15.00 °C
2,NCCNCCNCCN [Triethylene-tetramine],135.00 °C
3,"ClCCCCCl [1,4-Dichlorobutane]",52.00 °C
4,C=CC [Propylene],-108.00 °C
5,C=CCBr [Allyl bromide],-1.00 °C
6,COC=O [Methyl formate],-19.00 °C
7,"CC(O)C(C)O (stereo unspecified) [2,3-Butylene glycol]",85.00 °C
8,FC(F)(F)c1ccccc1 [Benzotrifluoride],12.00 °C
9,CC(C)(C)OOC(=O)c1ccccc1 [tert-Butyl perbenzoate],88.00 °C
10,COc1ccc(O)cc1 [Hydroquinone monomethyl ether],131.00 °C
11,Clc1ccccc1Cl [o-Dichlorobenzene],66.00 °C
12,CCO [Ethanol],12.00 °C
13,CCCCCCC(C)OC(=O)c1ccccc1C(=O)OC(C)CCCCCC (stereo unspecified) [Di-sec-Octyl phthalate],218.00 °C
14,OCCOCCO [Diethylene glycol],124.00 °C
15,Clc1ccccc1 [Chlorobenzene],29.00 °C
16,CCCCC(C)=O [Methyl butyl ketone],35.00 °C
17,CCCCc1ccccc1 [n-Butyl benzene],71.00 °C
18,COc1ccccc1 [Anisole],52.00 °C
19,Cc1ccccc1C [o-Xylene],32.00 °C
20,CC(O)C#N (stereo unspecified) [Lactonitrile],77.00 °C
21,"CCN(CC)c1ccccc1 [N,N-Diethylaniline ]",85.00 °C
22,CO [Methyl alcohol],12.00 °C

# Remark: another data set of the same source
row,flash point,Compound
1,25 °C,CCCCCC=O [hexanal]
2,-6 °C,C=C1CCCCC1 [methylenecyclohexane]
3,26 °C,CCCCCCCl [1-chlorohexane]
4,32 °C,COCCCN [3-methoxypropylamine]
5,-0 °C,CCCOC=O [propyl formate]
6,110 °C,C=CCCCCCCCCCCCC [1-tetradecene]
7,-11 °C,CCC(C)(C)OC [methyl tert-pentyl ether]
8,69 °C,CCCCCCCC(C)=O [2-nonanone]
9,33 °C,"CC(N)CN (stereo unspecified) [1,2-propanediamine]"
10,89 °C,CCCCCCCCCC(C)=O [2-undecanone]
11,29 °C,CCC1=NCCO1 [2-ethyloxazoline]
12,36 °C,CC(=O)CCC(C)C [5-methyl-2-hexanone]
13,49 °C,Cc1ccc(Cl)cc1 [4-chlorotoluene]
14,-0 °C,C1=CCCC1 [cyclopentene]
15,57 °C,CCCCCOCCCCC [dipentylether]
16,11 °C,Cc1ccsc1 [3-methylthiophene]
17,15 °C,COC(OC)OC [trimethoxymethane]
18,45 °C,C=C(C)c1ccccc1 [alpha-methylstyrene]
19,62 °C,CC1CCCC(O)C1 (stereo unspecified) [3-methylcyclohexanol]
20,-27 °C,CC(C)(C)Cl [2-chloro-2-methylpropane]
21,-48 °C,CCS [ethanethiol]
22,18 °C,C=CCI [3-iodo-1-propene]
23,-6 °C,CCCC=O [butyraldehyde]
24,82 °C,Cc1cccc2ccccc12 [1-methylnaphthalene]
25,-25 °C,CC(C)C=O [2-methyl-1-propanal]
26,169 °C,CCCCCCCCCCCCCCCCCCCC [eicosane]

row,flash point,Compound
1,47 °C,C=CCCCCO [5-hexen-1-ol]
2,58 °C,CSCCC=O [4-thiapentanal]
3,50 °C,"SCCS [1,2-ethanedithiol]"
4,38 °C,COCC(C)O (stereo unspecified) [1-methoxy-2-propanol]
5,-11 °C,CC1CCCO1 (stereo unspecified) [2-methyltetrahydrofuran]
6,64 °C,CCc1ccc(Cl)cc1 [1-chloro-4-ethylbenzene]
7,60 °C,CCCCCCCCN [octylamine]
8,-65 °C,C1CCC1 [cyclobutane]
9,41 °C,CCCCCCC=O [heptanal]
10,117 °C,CCCCOCCOCCOCCCC [diethylene glycol dibutyl ether]
11,6 °C,CC(=O)C(C)C [3-methyl-2-butanone]
12,86 °C,CN1CCCC1=O [1-methyl-2-pyrrolidinone]
13,62 °C,CCCCCCC(C)=O [2-octanone]
14,46 °C,CCCCC(C=O)CC (stereo unspecified) [2-ethylhexanal]
15,7 °C,"CCC(Cl)Cl [1,1-dichloropropane]"
16,13 °C,CC#N [acetonitrile]
17,-32 °C,CCCC(C)C [2-methylpentane]
18,51 °C,"COC1C=CC(OC)O1 (stereo unspecified) [2,5-dimethoxy-2,5-dihydrofuran]"
19,42 °C,CC(C)(C)C1CCCCC1 [t-butylcyclohexane]
20,56 °C,c1ccc2occc2c1 [benzofuran]
21,49 °C,CC(C)CC(=O)CC(C)C [diisobutyl ketone]
22,82 °C,CC(=O)c1ccccc1 [acetophenone]
23,13 °C,CC(=O)C1CC1 [1-cyclopropylethanone]
24,30 °C,CCOC(OCC)OCC [triethoxymethane]
25,57 °C,"Cc1cc(C)nc(C)c1 [2,4,6-trimethylpyridine]"

row,Compound,flash point
1,"CN(C)C1CCCCC1 [N,N-dimethylcyclohexylamine]",39 °C
2,CCCCCCCC(=O)Cl [octanoyl chloride],82 °C
3,CCCCCCCCCl [1-chlorooctane],63 °C
4,"ClCCCCCCl [1,5-dichloropentane]",26 °C
5,CCCCCl [1-chlorobutane],-12 °C
6,"ClCCCCCl [1,4-dichlorobutane]",40 °C
7,CS(C)=O [dimethylsulfoxide],88 °C
8,CCCCCCI [1-iodohexane],67 °C
9,O=Cc1ccccc1 [benzaldehyde],62 °C
10,"ClCC(Cl)(Cl)Cl [1,1,1,2-tetrachloroethane]",47 °C
11,CN(CCO)CCO [methyldiethanolamine],138 °C
12,CCCC(=O)OC(=O)CCC [butyric anhydride],87 °C
13,"ClCCCCl [1,3-dichloropropane]",32 °C
14,CCCCON=O [n-butyl nitrite],-13 °C
15,c1ccc(Cc2ccccc2)cc1 [diphenylmethane],127 °C
16,OCc1ccccc1 [benzyl alcohol],93 °C
17,C=CCC#N [3-butenenitrile],21 °C
18,Oc1ccc(Cl)cc1 [4-chlorophenol],115 °C
19,CC(=O)OC(C)=O [acetic anhydride],49 °C
20,CCNCC [diethylamine],-26 °C and -23 °C
21,"CC(=O)CC(C)=O [2,4-pentanedione]",34 °C
22,CCC(C)(C)O.CCC(C)(C)O [tert-amyl alcohol (2-methyl-2-butanol)],20 °C
23,CN(C)CCO [2-dimethylaminoethanol],40 °C
24,CCCCN=C=O [butyl isocyanate],29 °C
25,Cc1ccc2ccccc2c1 [2-methylnaphthalene],97 °C
26,"OCCCCO [1,4-butanediol]",135 °C
27,O=CC=Cc1ccccc1 [cinnamaldehyde],71 °C

# — a flash point compilation (Sun et al. 2020)
